Test results as given in PubChem BioAssay AID328 (DTP/NCI, 2004).
Where “and” joins values, the source holds several entries; their conditions need not be identical. Equal values may be shown once. Toxic doses and inconclusive results are not listed.

Tested on: BDF1 mice, P388 leukemia ip, median survival T/C
Assay: NCI In Vivo Anticancer Drug Screen. Data for tumor model P388 Leukemia (intraperitoneal) in B6D2F1 (BDF1) mice
Settings: endpoint: median survival time, higher = longer survival
In short: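 T/C = treated-group survival ÷ vehicle-control survival; tumour transplanted into mice before dosing.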

[1] = dose: 6.25 mg/kg/injection, schedule: Q01DX009 (ip), vehicle: saline with Tween-80
[2] = dose: 12.5 mg/kg/injection, schedule: Q01DX009 (ip), vehicle: saline with Tween-80
[3] = dose: 25.0 mg/kg/injection, schedule: Q01DX009 (ip), vehicle: saline with Tween-80
[4] = dose: 50.0 mg/kg/injection, schedule: Q01DX009 (ip), vehicle: saline with Tween-80
[5] = dose: 100.0 mg/kg/injection, schedule: Q01DX009 (ip), vehicle: Klucel (hydroxypropylcellulose) (HPC)
[6] = dose: 100.0 mg/kg/injection, schedule: Q04DX003 (ip), vehicle: Klucel (hydroxypropylcellulose) (HPC)
[7] = dose: 200.0 mg/kg/injection, schedule: Q01DX009 (ip), vehicle: Klucel (hydroxypropylcellulose) (HPC)
[8] = dose: 200.0 mg/kg/injection, schedule: Q04DX003 (ip), vehicle: Klucel (hydroxypropylcellulose) (HPC)
[9] = dose: 400.0 mg/kg/injection, schedule: Q01DX009 (ip), vehicle: Klucel (hydroxypropylcellulose) (HPC)
[10] = dose: 400.0 mg/kg/injection, schedule: Q04DX003 (ip), vehicle: Klucel (hydroxypropylcellulose) (HPC)
[11] = dose: 100.0 mg/kg/injection, schedule: Q04DX003 (ip), vehicle: saline with Tween-80
[12] = dose: 200.0 mg/kg/injection, schedule: Q04DX003 (ip), vehicle: saline with Tween-80
[13] = dose: 100.0 mg/kg/injection, schedule: Q01DX009 (ip), vehicle: saline with Tween-80
[14] = dose: 50.0 mg/kg/injection, schedule: Q04DX003 (ip), vehicle: saline
[15] = dose: 100.0 mg/kg/injection, schedule: Q04DX003 (ip), vehicle: saline
[16] = dose: 200.0 mg/kg/injection, schedule: Q04DX003 (ip), vehicle: saline
[17] = dose: 200.0 mg/kg/injection, schedule: Q01DX009 (ip), vehicle: saline with Tween-80
[18] = dose: 400.0 mg/kg/injection, schedule: Q04DX003 (ip), vehicle: saline with Tween-80

COc1cccc(/C=N/NC(=O)C2CCN(C(=S)NC3CC4C=CC3C4)CC2)c1O (centres undefined) was tested, and the T/C (dose: 1.56 mg/kg/injection, schedule: Q01DX009 (ip), vehicle: saline with Tween-80) was 90 % of control, the T/C (dose: 3.12 mg/kg/injection, schedule: Q01DX009 (ip), vehicle: saline with Tween-80) was 89 % of control and the T/C [1] was 87 % of control and 92 % of control. For the same compound, the T/C [2] was 89 % of control, the T/C [3] was 92 % of control and the T/C [4] was 101 % of control.

COc1ccc(/C=C/c2ccc3ccccc3[n+]2C)cc1OC was tested, and the T/C (dose: 18.75 mg/kg/injection, schedule: Q01DX009 (ip), vehicle: saline) was 150 % of control and the T/C (dose: 37.5 mg/kg/injection, schedule: Q01DX009 (ip), vehicle: saline) was 160 % of control.

With COC(=O)Nc1nc2ccc(Br)cc2[nH]1 the T/C [5] was 104 % of control, the T/C [6] was 109 % of control and the T/C [7] was 112 % of control. The T/C [8] was 109 % of control, the T/C [9] was 116 % of control and the T/C [10] was 113 % of control.

With C=CCN(CC=C)/N=N/c1nc[nH]c1C(N)=O the T/C (dose: 50.0 mg/kg/injection, schedule: Q04DX003 (ip), vehicle: saline with Tween-80) was 100 % of control, the T/C [11] was 95 % of control and the T/C [12] was 113 % of control.

For CCC1=C(c2cc(Cl)c3ccccc3c2OCC(=O)O)OC(CC)(C(=O)c2cc(Cl)c3ccccc3c2OCC(=O)O)CC1 (centres undefined), the T/C [3] was 90 % of control, the T/C [4] was 95 % of control and the T/C (dose: 50.0 mg/kg/injection, schedule: Q04DX003 (ip), vehicle: saline sonified) was 100 % of control. The T/C [13] was 115 % of control and the T/C (dose: 200.0 mg/kg/injection, schedule: Q04DX003 (ip), vehicle: saline sonified) was 90 % of control.

In the case of NC(=S)N/N=C\c1[nH]c(=O)nc2ccccc12, the T/C [6] is reported as 100 % of control, the T/C [8] is reported as 100 % of control and the T/C [10] is reported as 95 % of control.

With O=CC(O)C(O)C(O)C(O)CO (centres undefined) the T/C (dose: 31.25 mg/kg/injection, schedule: Q01DX010 (ip), vehicle: saline) was 107 % of control, the T/C (dose: 62.5 mg/kg/injection, schedule: Q01DX010 (ip), vehicle: saline) was 115 % of control and the T/C (dose: 125.0 mg/kg/injection, schedule: Q01DX010 (ip), vehicle: saline) was 115 % of control. The T/C (dose: 0.2 grams/kg/injection, schedule: Q03DX003 (ip), vehicle: water) was 96 % of control, the T/C (dose: 250.0 mg/kg/injection, schedule: Q01DX010 (ip), vehicle: saline) was 107 % of control and the T/C (dose: 0.4 grams/kg/injection, schedule: Q03DX003 (ip), vehicle: water) was 97 % of control. For the same compound, the T/C (dose: 0.8 grams/kg/injection, schedule: Q03DX003 (ip), vehicle: water) was 102 % of control, the T/C (dose: 1.5 grams/kg/injection, schedule: Q03DX003 (ip), vehicle: water) was 93 % of control and the T/C (dose: 3.0 grams/kg/injection, schedule: Q03DX003 (ip), vehicle: water) was 102 % of control. The T/C (dose: 6.0 grams/kg/injection, schedule: Q03DX003 (ip), vehicle: water) was 98 % of control, the T/C (dose: 12.0 grams/kg/injection, schedule: Q03DX003 (ip), vehicle: water) was 95 % of control and the T/C (dose: 16.0 grams/kg/injection, schedule: Q03DX003 (ip), vehicle: water) was 101 % of control.

CCCCCCCCCCCCCCCCCCOc1ccccn1 was tested, and the T/C (dose: 3.12 mg/kg/injection, schedule: Q01DX009 (ip), vehicle: Klucel (hydroxypropylcellulose) (HPC)) was 100 % of control, the T/C (dose: 6.25 mg/kg/injection, schedule: Q01DX009 (ip), vehicle: Klucel (hydroxypropylcellulose) (HPC)) was 104 % of control and the T/C (dose: 12.5 mg/kg/injection, schedule: Q01DX009 (ip), vehicle: Klucel (hydroxypropylcellulose) (HPC)) was 104 % of control. The T/C [6] was 95 % of control, the T/C [8] was 100 % of control and the T/C [9] was 89 % of control. The T/C [10] was 95 % of control.

CCOC(=O)C1=C(C)NC(C)=C(C(=O)OCC)C1c1cc(OC)c(OC)c(OC)c1 was tested, and the T/C (dose: 25.0 mg/kg/injection, schedule: Q01DX009 (ip), vehicle: other) was 100 % of control, the T/C (dose: 50.0 mg/kg/injection, schedule: Q01DX009 (ip), vehicle: other) was 95 % of control and the T/C (dose: 100.0 mg/kg/injection, schedule: Q01DX009 (ip), vehicle: other) was 96 % of control. For the same compound, the T/C (dose: 200.0 mg/kg/injection, schedule: Q01DX009 (ip), vehicle: other) was 95 % of control and the T/C (dose: 400.0 mg/kg/injection, schedule: Q01DX009 (ip), vehicle: other) was 87 % of control.

In the case of ON=C(c1ccccn1)c1ccccn1, the T/C (dose: 100.0 mg/kg/injection, schedule: Q04DX003 (ip), vehicle: gum acacia) is reported as 100 % of control, the T/C (dose: 200.0 mg/kg/injection, schedule: Q04DX003 (ip), vehicle: gum acacia) is reported as 104 % of control and the T/C (dose: 400.0 mg/kg/injection, schedule: Q04DX003 (ip), vehicle: gum acacia) is reported as 104 % of control.

With C[S+](C)CC(=O)c1ccccc1 the T/C (dose: 50.0 mg/kg/injection, schedule: Q01DX001 (ip), vehicle: saline) was 116 % of control, the T/C [14] was 91 % of control and the T/C (dose: 100.0 mg/kg/injection, schedule: Q01DX001 (ip), vehicle: saline) was 116 % of control. The T/C [15] was 95 % of control, the T/C (dose: 200.0 mg/kg/injection, schedule: Q01DX001 (ip), vehicle: saline) was 112 % of control and the T/C [16] was 95 % of control.

COC(=O)C(NC(C)=O)C(=O)OC was tested, and the T/C [5] was 104 % of control, the T/C [7] was 92 % of control and the T/C [9] was 88 % of control.

Cc1ccc(S(=O)(=O)N(C)CCC#N)cc1 was tested, and the T/C [5] was 90 % of control, the T/C [6] was 90 % of control and the T/C [7] was 100 % of control. The T/C [8] was 100 % of control, the T/C [9] was 110 % of control and the T/C [10] was 109 % of control.

With Nc1cc(/C=C/c2ccc([N+](=O)[O-])cc2)nc2ccccc12 the T/C (dose: 25.0 mg/kg/injection, schedule: Q04DX002 (ip), vehicle: saline with Tween-80) was 101 % of control, the T/C [4] was 88 % of control and the T/C (dose: 50.0 mg/kg/injection, schedule: Q04DX002 (ip), vehicle: saline with Tween-80) was 117 % of control. For the same compound, the T/C [13] was 94 % of control, the T/C [17] was 94 % of control and the T/C (dose: 200.0 mg/kg/injection, schedule: Q04DX002 (ip), vehicle: saline with Tween-80) was 88 % of control.

For O=C(O)c1ccccc1N=Cc1ccccc1O, the T/C (dose: 176.0 mg/kg/injection, schedule: Q04DX003 (ip), vehicle: saline with Tween-80) was 109 % of control, the T/C (dose: 264.0 mg/kg/injection, schedule: Q04DX003 (ip), vehicle: saline with Tween-80) was 109 % of control and the T/C [18] was 109 % of control.

CN(C)c1ccc(/C=C/c2ccnc3c(Cl)cccc23)cc1 was tested, and the T/C [4] was 94 % of control, the T/C [13] was 98 % of control and the T/C [17] was 100 % of control.

For S=C1SC(c2ccccc2)(c2ccccc2)c2ccccc21, the T/C (dose: 100.0 mg/kg/injection, schedule: Q01DX001 (ip), vehicle: saline with Tween-80) was 100 % of control, the T/C (dose: 200.0 mg/kg/injection, schedule: Q01DX001 (ip), vehicle: saline with Tween-80) was 94 % of control and the T/C (dose: 400.0 mg/kg/injection, schedule: Q01DX001 (ip), vehicle: saline with Tween-80) was 93 % of control.

For CC1=C(/C=C/C(C)=C/C=C/C(C)=C/C(=O)O)C(C)(C)CCC1, the T/C [1] was 95 % of control, the T/C [2] was 104 % of control and the T/C [3] was 104 % of control.

In the case of Nc1ccc(OCCNS(=O)(=O)c2cccc(S(=O)(=O)F)c2)c(Cl)c1, the T/C (dose: 25.0 mg/kg/injection, schedule: Q01DX009 (ip), vehicle: saline) is reported as 107 % of control, the T/C (dose: 50.0 mg/kg/injection, schedule: Q01DX009 (ip), vehicle: saline) is reported as 104 % of control and the T/C [14] is reported as 103 % of control. The T/C (dose: 100.0 mg/kg/injection, schedule: Q01DX009 (ip), vehicle: saline) was 114 % of control, the T/C [15] was 103 % of control and the T/C (dose: 200.0 mg/kg/injection, schedule: Q01DX009 (ip), vehicle: saline) was 105 % of control. The T/C [16] was 103 % of control and the T/C (dose: 400.0 mg/kg/injection, schedule: Q04DX003 (ip), vehicle: saline) was 100 % of control.

For CCOc1ccc(Br)cc1C=O, the T/C [13] was 100 % of control, the T/C [11] was 90 % of control and the T/C [17] was 100 % of control. The T/C [12] was 95 % of control, the T/C (dose: 400.0 mg/kg/injection, schedule: Q01DX009 (ip), vehicle: saline with Tween-80) was 100 % of control and the T/C [18] was 100 % of control.
